Experimental findings from patent US20110098325A1, “PYRIDINE BENZAMIDES AND PYRAZINE BENZAMIDES USED AS PKD INHIBITORS” (CANCER RESEARCH TECHNOLOGY LIMITED, priority 2006, published 2011) are described below.

The target of the test is T1, Murine PKD1 kinase domain (Mus musculus, UniProt Q62101).
T1 construct: hexahistidine (pFastBac HTb leader) (N); made in house; host or cells: Sf9 insect cells, baculovirus (Bac-to-Bac HT, pFastBac HTb)
T1 sequence (Q62101 with tags, fused parts or gaps R683W): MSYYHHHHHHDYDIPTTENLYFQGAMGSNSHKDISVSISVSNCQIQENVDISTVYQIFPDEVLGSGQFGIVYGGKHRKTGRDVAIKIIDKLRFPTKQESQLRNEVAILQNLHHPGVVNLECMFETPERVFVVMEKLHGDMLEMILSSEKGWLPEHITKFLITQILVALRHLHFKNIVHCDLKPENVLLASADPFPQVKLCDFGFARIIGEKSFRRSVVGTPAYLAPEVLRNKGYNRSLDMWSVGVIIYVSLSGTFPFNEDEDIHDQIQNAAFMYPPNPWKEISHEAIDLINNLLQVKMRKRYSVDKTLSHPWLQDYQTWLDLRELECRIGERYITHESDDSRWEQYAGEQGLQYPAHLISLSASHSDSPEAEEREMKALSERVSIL
Nature of the test: PKD1 (Murine Kinase Domain) Enzyme Activity Assay (IMAP fluorescence polarisation). Type of test: biochemical. The following applies: 10 μM ATP, 60 minutes, room temperature. The source says:
The DNA sequence corresponding to murine PKD1 (see FIG. 1) was inserted into pFastBAc Htb (Invitrogen, USA) at BamH1 and EcoR1 sites using standard molecular biology techniques.
The PKD1 described above was expressed as a hexahistidine tagged protein construct using a commercially available baculoviral expression system that induces protein production in insect cell culture (Bac-to-Bac® HT Baculovirus Expression System, Invitrogen). Protein was typically expressed by inoculating 1 L of sf9 cells with a genetically modified baculovirus containing the gene for the kinase domain of PKD1. Sf9 cells were obtained from ICR Ltd.
Purification of PKD1 was achieved by standard chromatographic procedures. Capture from crude centrifuged lysed cell supernatant was achieved using metal affinity chromatography (GE Healthcare Life Sciences, HiTrap Chelating chromatography column), and fractions showing PKD1 (as assessed by gel electrophoresis and western blot) were further purified by a single polish purification step performed using a mono Q anion exchange chromatography system (GE Healthcare Life Sciences, HiTrap HP Q column). […] This protocol describes the method for screening compounds as inhibitors of Protein Kinase D activity in a 384 well microplate format fluorescence polarisation IMAP assay performed using the Biomek FX.
Kinase Enzyme: Murine PKD1 kinase domain at ˜100 μg/mL, was purified from baculovirus (as described above), obtained from aliquots stored at −70° C. PKD was prepared with a final concentration of 0.1 μg/mL by diluting 1:300 in Reaction Buffer (30 μL per 9 mL-5 mL per plate with an additional 4 mL dead volume) and vortexing prior to use. It was necessary to check this concentration regularly in case of enzyme degradation.
(also known as MAPKAP K2 substrate) was obtained from Molecular Devices (Product code R7127). It was used at 300 nM by diluting 20 μM stock 1:66 in Kinase/Reaction Buffer (135 μL per 9 mL; 75 μL per 5 mL Reaction Buffer for blank wells requiring <1 mL per place with an additional 4 mL dead volume).
A 1 mM ATP stock in Reaction Buffer was prepared from a 10 mM stock in 20 mM NaOH and stored as aliquots at −70° C. It was used at 40 μM by diluting 1 mM stock 1:25 in Reaction Buffer (240 μL per 6 mL-2 mL per plate with an additional 4 mL dead volume) and vortexing prior to use.
IMAP Reagents: IMAP Binding Reagent (product code R7207) and Binding Buffer (product code R7208) were obtained from Molecular Devices and stored at +4° C. The beads were gently re-suspended before diluting by 1:400 in buffer (Binding Buffer is supplied as a 5× stock and so was diluted with water prior to use) and then vortexing before addition to wells. 16 mL water with 4 mL Binding Buffer and 50 μL Binding Reagent were used per plate (17 mL per plate with an additional 3 mL dead volume).
13 μL Substrate in Reaction Buffer was added to ‘blank’ wells to give 200 nM reaction concentration. […] 2 μL 10% DMSO/water was added to ‘blank’ and ‘control’ wells. 5 μL ATP in Reaction Buffer was added to all wells to give 10 μM reaction concentration. The reaction mixture was then incubated at room temperature for 60 minutes. The incubation period was followed by the addition of 40 μL IMAP Binding Reagent in Binding Buffer to all wells. The reaction was then further incubated at room temperature for […].
Percentage inhibition was calculated based on activity of the test sample minus the average values in the blank wells relative to the average values measured in control wells minus the average values in the blank wells.
IC50 values were calculated from 10 point dose sigmoid ‘dose-response’ curves using Xlfit software (IDBS inc, USA). Data were fitted to a 4 parameter logistic model/sigmoidal dose response:
where: A=fit minimum (locked to 0); B=fit maximum (locked to 100); C=fit midpoint (pre-fit to 1); D=slope at linear portion of curve, hillslope (pre-fit to 0.1)
A general note: Fluorescence polarisation rises when a labelled molecule tumbles more slowly, as on binding a larger partner.

One may read the IC50 as the concentration needed to halve the response being measured. A low value points to inhibition by little substance.

In turn, `CN(C)CCNC(=O)c1cccc(-c2cnc(N)c(-c3ccc(Cl)nc3)c2)c1` [Y-006, 3-(2-Amino-6′-chloro-[3,3′]bipyridinyl-5-yl)-N-(2-dimethylamino-ethyl)-benzamide] gave an IC50 of 1000 to 10000 nM. As for `CCN(CC)CCNC(=O)c1cccc(-c2cnc(N)c(-c3cccc(OC)c3)n2)c1` [X-027, 3-[5-Amino-6-(3-methoxy-phenyl)-pyrazin-2-yl]-N-(2-diethylamino-ethyl)-benzamide], the IC50 is less than 1000 nM. Next, `CCSc1ccc(-c2cc(-c3cccc(C(=O)NCCN(C)C)c3)cnc2N)cc1` [Y-053, 3-[6-Amino-5-(4-ethylsulfanyl-phenyl)-pyridin-3-yl]-N-(2-dimethylamino-ethyl)-benzamide]: less than 1000 nM; `COc1cc(-c2cc(-c3cccc(C(N)=O)c3)cnc2N)ccc1F` [Y-055, 3-[6-Amino-5-(4-fluoro-3-methoxy-phenyl)-pyridin-3-yl]-benzamide]: less than 1000 nM. Regarding `CN(C)CCNC(=O)c1cccc(-c2cnc(N)c(-c3ccccc3OCc3ccccc3)c2)c1` [Y-030, 3-[6-Amino-5-(2-benzyloxy-phenyl)-pyridin-3-yl]-N-(2-dimethylamino-ethyl)-benzamide], the IC50 fell in the range of 1000 to 10000 nM. To `CN(C)CCNC(=O)c1cccc(-c2cnc(N)c(-c3ccncc3)c2)c1` [Y-084, 3-(2-Amino-[3,4′]bipyridinyl-5-yl)-N-(2-dimethylamino-ethyl)-benzamide] belongs less than 1000 nM; to `COc1ncc(-c2cc(-c3cccc(C(=O)NCCN(C)C)c3)cnc2N)c(OC)n1` [Y-029, 3-[6-Amino-5-(2,4-dimethoxy-pyrimidin-5-yl)-pyridin-3-yl]-N-(2-dimethylamino-ethyl)-benzamide], less than 1000 nM; to `CN(C)CCNC(=O)c1cccc(-c2cnc(N)c(-c3ccc(F)c(C(F)(F)F)c3)c2)c1` [Y-057, 3-[6-Amino-5-(4-fluoro-3-trifluoromethyl-phenyl)-pyridin-3-yl]-N-(2-dimethylamino-ethyl)-benzamide], less than 1000 nM. For `COc1ccc2cc(-c3cc(-c4cccc(C(=O)NCCN(C)C)c4)cnc3N)ccc2c1` [Y-087, 3-[6-Amino-5-(6-methoxy-naphthalen-2-yl)-pyridin-3-yl]-N-(2-dimethylamino-ethyl)-benzamide], the IC50 was less than 1000 nM.

`CN(C)CCNC(=O)c1cccc(-c2cnc(N)c(-c3cccc(Oc4ccccc4)c3)c2)c1` [Y-049, 3-[6-Amino-5-(3-phenoxy-phenyl)-pyridin-3-yl]-N-(2-dimethylamino-ethyl)-benzamide] came in with an IC50 of less than 1000 nM. Regarding `CN(C)CCNC(=O)c1cccc(-c2cnc(N)c(-c3ccc(-c4ccccc4)cc3)c2)c1` [Y-014, 3-(6-Amino-5-biphenyl-4-yl-pyridin-3-yl)-N-(2-dimethylamino-ethyl)-benzamide], the IC50 is less than 1000 nM. To `CN(C)CCNC(=O)c1cccc(-c2cnc(N)c(-c3ccc(-c4ccccc4)c(F)c3)c2)c1` [Y-031, 3-[6-Amino-5-(2-fluoro-biphenyl-4-yl)-pyridin-3-yl]-N-(2-dimethylamino-ethyl)-benzamide] belongs less than 1000 nM; to `COc1ccc2cc(-c3nc(-c4cccc(C(=O)NCCN(C)C)c4)cnc3N)ccc2c1` [X-025, 3-[5-Amino-6-(6-methoxy-naphthalen-2-yl)-pyrazin-2-yl]-N-(2-dimethylamino-ethyl)-benzamide], less than 1000 nM; to `CN(C)CCNC(=O)c1cccc(-c2cnc(N)c(-c3ccc(O)nc3)c2)c1` [Y-007, 3-(2-Amino-6′-hydroxy-[3,3′]bipyridinyl-5-yl)-N-(2-dimethylamino-ethyl)-benzamide], less than 1000 nM. As to `COc1cccc(-c2cc(-c3cccc(C(=O)NCCN(C)C)c3)cnc2N)n1` [Y-083, 3-(2′-Amino-6-methoxy-[2,3′]bipyridinyl-5′-yl)-N-(2-dimethylamino-ethyl)-benzamide], the IC50 is less than 1000 nM. `Cc1ccc(-c2cc(-c3cccc(C(=O)NCCN(C)C)c3)cnc2N)cc1C` [Y-036, 3-[6-Amino-5-(3,4-dimethyl-phenyl)-pyridin-3-yl]-N-(2-dimethylamino-ethyl)-benzamide] gave an IC50 of less than 1000 nM. For `CN(C)CCNC(=O)c1cccc(-c2cnc(N)c(-c3ccc4[nH]ncc4c3)c2)c1` [Y-094, 3-[6-Amino-5-(1H-indazol-5-yl)-pyridin-3-yl]-N-(2-dimethylamino-ethyl)-benzamide], the IC50 was less than 1000 nM. To `CNc1ncc(-c2cccc(C(=O)NCCN(C)C)c2)cc1-c1cccc(OC)c1` [Y-074, N-(2-Dimethylamino-ethyl)-3-[5-(3-methoxy-phenyl)-6-methylamino-pyridin-3-yl]-benzamide] belongs less than 1000 nM; to `CN(C)CCNC(=O)c1cccc(-c2cnc(N)c(-c3cccc(OCc4ccccc4)c3)c2)c1` [Y-038, 3-[6-Amino-5-(3-benzyloxy-phenyl)-pyridin-3-yl]-N-(2-dimethylamino-ethyl)-benzamide], less than 1000 nM. Next, `CN(C)CCNC(=O)c1cccc(-c2cnc(N)c(-c3ccc(F)c(Cl)c3)c2)c1` [Y-039, 3-[6-Amino-5-(3-chloro-4-fluoro-phenyl)-pyridin-3-yl]-N-(2-dimethylamino-ethyl)-benzamide]: less than 1000 nM. With `CN(C)CCNC(=O)c1cccc(-c2cnc(N)c(-c3ccc(OC(F)(F)F)cc3)c2)c1` [Y-064, 3-[6-Amino-5-(4-trifluoromethoxy-phenyl)-pyridin-3-yl]-N-(2-dimethylamino-ethyl)-benzamide], the IC50 is less than 1000 nM. In turn, `CCN(CC)CCNC(=O)c1cccc(-c2cnc(N)c(-c3cccc(OC)c3)c2)c1` [Y-096, 3-[6-Amino-5-(3-methoxy-phenyl)-pyridin-3-yl]-N-(2-diethylamino-ethyl)-benzamide] showed an IC50 of less than 1000 nM. To `COc1cc(-c2cncc(-c3cccc(C(=O)N4CCNCC4)c3)n2)ccc1O` [X-010, {3-[6-(4-Hydroxy-3-methoxy-phenyl)-pyrazin-2-yl]-phenyl}-piperazin-1-yl-methanone] belongs 1000 to 10000 nM. Regarding `CN(C)CCNC(=O)c1cccc(-c2cnc(N)c(-c3ccc(C(C)(C)C)cc3)c2)c1` [Y-068, 3-[6-Amino-5-(4-tert-butyl-phenyl)-pyridin-3-yl]-N-(2-dimethylamino-ethyl)-benzamide], the IC50 was less than 1000 nM. `COc1ccc(-c2cc(-c3cccc(C(=O)NCCN(C)C)c3)cnc2N)cc1OC` [Y-035, 3-[6-Amino-5-(3,4-dimethoxy-phenyl)-pyridin-3-yl]-N-(2-dimethylamino-ethyl)-benzamide] returned an IC50 of less than 1000 nM.

With `CN(C)CCNC(=O)c1cccc(-c2cnc(N)c(-c3cccc(CC#N)c3)c2)c1` [Y-080, 3-[6-Amino-5-(3-cyanomethyl-phenyl)-pyridin-3-yl]-N-(2-dimethylamino-ethyl)-benzamide], the IC50 is less than 1000 nM.

Molecule `CN(C)CCNC(=O)c1cccc(-c2cnc(N)c(-c3ccc4nccnc4c3)c2)c1` [Y-091, 3-(6-Amino-5-quinoxalin-6-yl-pyridin-3-yl)-N-(2-dimethylamino-ethyl)-benzamide] had an IC50 of less than 1000 nM.
